Measured values: ChEMBL document CHEMBL1201861, “Genomics of Drug Sensitity in Cancer screening data, Wellcome Trust Sanger Institute”

How the values were obtained:
Assay in all cases: cells
[1] = system: C8166; type: functional, cell-based; conditions: Homo sapiens;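 also: growth inhibition of human C8166 cells measured by a cell viability assay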
Description: SANGER: Inhibition of human C8166 cell growth in a cell viability assay.

[2] = system: COLO-668; type: functional, cell-based, Homo sapiens; conditions: Homo sapiens, COLO-668
Description: SANGER: Inhibition of human COLO-668 cell growth in a cell viability assay.

[3] = system: A498; type: functional, cell-based, Homo sapiens; conditions: Homo sapiens, A498;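 also: growth inhibition of human A498 cells, read out with a cell viability assay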
Description: SANGER: Inhibition of human A498 cell growth in a cell viability assay.

[4] = system: PSN1; type: functional, cell-based, Homo sapiens; conditions: Homo sapiens, PSN1;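 also: suppression of growth of human PSN1 cells, read out by a cell viability assay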
Description: SANGER: Inhibition of human PSN1 cell growth in a cell viability assay.

[5] = system: SHP77; type: functional, cell-based, Homo sapiens, SHP-77; conditions: Homo sapiens, SHP77;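 also: growth inhibition of human SHP-77 cells measured by a cell viability assay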
Description: SANGER: Inhibition of human SHP-77 cell growth in a cell viability assay.

[6] = system: CTV-1; type: functional, cell-based; conditions: Homo sapiens;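 also: growth inhibition of the cell line, read out with a cell viability assay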
Description: SANGER: Inhibition of human CTV-1 cell growth in a cell viability assay.

[7] = system: A101D; type: functional, cell-based, Homo sapiens; conditions: Homo sapiens, A101D;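 also: growth inhibition of the cell line, measured with a viability assay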
Description: SANGER: Inhibition of human A101D cell growth in a cell viability assay.

[8] = system: CTB-1; type: functional, cell-based; conditions: Homo sapiens
Description: SANGER: Inhibition of human CTB-1 cell growth in a cell viability assay.

[9] = system: NB12; type: functional, cell-based, Homo sapiens; conditions: Homo sapiens, NB12;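 also: growth inhibition of human NB12 cells, read out by a cell viability assay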
Description: SANGER: Inhibition of human NB12 cell growth in a cell viability assay.

[10] = system: NB17; type: functional, cell-based; conditions: Homo sapiens;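 also: growth inhibition of NB17 cells, read out with a cell viability assay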
Description: SANGER: Inhibition of human NB17 cell growth in a cell viability assay.

[11] = system: KE-37; type: functional, cell-based; conditions: Homo sapiens;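 also: growth inhibition of KE-37 cells, read out with a cell viability assay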
[12] = system: KM12; type: functional, cell-based, Homo sapiens; conditions: Homo sapiens, KM12;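 also: KM12 cell growth inhibition, read out with a cell viability assay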
Description: SANGER: Inhibition of human KM12 cell growth in a cell viability assay.

[13] = system: HCC 2998; type: functional, cell-based, Homo sapiens; conditions: Homo sapiens, HCC 2998;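 also: growth inhibition of human HCC2998 cells, measured with a cell viability read-out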
Description: SANGER: Inhibition of human HCC2998 cell growth in a cell viability assay.

[14] = system: NCI-H23; type: functional, cell-based, Homo sapiens; conditions: Homo sapiens, NCI-H23;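 also: cell viability assay measuring growth inhibition of NCI-H23 cells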
[15] = system: MC116; type: functional, cell-based; conditions: Homo sapiens;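 also: growth inhibition of MC116 cells, read out with a cell viability assay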
Description: SANGER: Inhibition of human MC116 cell growth in a cell viability assay.

[16] = system: KGN; type: functional, cell-based, Homo sapiens; conditions: Homo sapiens, KGN;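 also: growth inhibition of KGN cells, read out with a cell viability assay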
[17] = system: BV-173; type: functional, cell-based; conditions: Homo sapiens
Description: SANGER: Inhibition of human BV-173 cell growth in a cell viability assay.

[18] = system: COR-L88; type: functional, cell-based; conditions: Homo sapiens;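 also: growth inhibition of COR-L88 cells, read out with a cell viability assay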
Description: SANGER: Inhibition of human COR-L88 cell growth in a cell viability assay.

[19] = system: SJSA-1; type: functional, cell-based, Homo sapiens; conditions: Homo sapiens, SJSA-1;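 also: growth inhibition of human SJSA-1 cells, read out through a cell viability measurement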
Description: SANGER: Inhibition of human SJSA-1 cell growth in a cell viability assay.

[20] = system: NB69; type: functional, cell-based, Homo sapiens; conditions: Homo sapiens, NB69;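 also: growth inhibition of NB69 cells, determined by a cell viability assay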
Description: SANGER: Inhibition of human NB69 cell growth in a cell viability assay.

[21] = system: KNS-81-FD; type: functional, cell-based, Homo sapiens; conditions: Homo sapiens, KNS-81-FD;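 also: growth inhibition of KNS-81-FD cells, read out with a cell viability assay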
Description: SANGER: Inhibition of human KNS-81-FD cell growth in a cell viability assay.

[22] = system: SCC-15; type: functional, cell-based, Homo sapiens; conditions: Homo sapiens, SCC-15;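 also: growth inhibition of SCC-15 cells, read out with a cell viability assay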
Description: SANGER: Inhibition of human SCC-15 cell growth in a cell viability assay.

Compound	IC50 [1] [nM]	IC50 [2] [nM]	IC50 [3] [nM]	IC50 [4] [nM]	IC50 [5] [nM]	IC50 [6] [nM]	IC50 [7] [nM]	IC50 [8] [nM]	IC50 [10] [nM]	IC50 [11] [nM]	IC50 [12] [nM]	IC50 [14] [nM]	IC50 [15] [nM]	IC50 [16] [nM]	IC50 [17] [nM]	IC50 [18] [nM]	IC50 [19] [nM]	IC50 [20] [nM]	IC50 [21] [nM]	IC50 [22] [nM]	further results
C=C1C(=O)O[C@@H]2C3O[C@]3(C)CC/C=C(\C)CC[C@@H]12 (some centres undefined)	> 5000	> 5000	> 5000	> 5000	> 5000	> 5000	> 5000	3850	1720	> 5000	> 5000	> 5000	> 5000	> 5000	> 5000	> 5000	> 5000	> 5000	> 5000	–	IC50 [9]: > 5000 nM; IC50 [13]: > 5000 nM
CC1=C2C[C@H]3[C@@H](CC=C4C[C@@H](O)CC[C@@]43C)[C@@H]2CC[C@]12O[C@@H]1C[C@H](C)CN[C@H]1[C@H]2C [CYCLOPAMINE]	> 16000	> 16000	> 16000	> 16000	> 16000	> 16000	> 16000	> 16000	> 16000	> 16000	> 16000	> 16000	> 16000	> 16000	> 16000	> 16000	> 16000	> 16000	> 16000	> 16000	IC50 [9]: > 16000 nM; IC50 [13]: > 16000 nM
CS(=O)(=O)CCNCc1ccc(-c2ccc3ncnc(Nc4ccc(OCc5cccc(F)c5)c(Cl)c4)c3c2)o1 [LAPATINIB]	> 2000	> 2000	–	> 2000	> 2000	> 2000	> 2000	> 2000	> 2000	> 2000	> 2000	> 2000	> 2000	> 2000	> 2000	> 2000	> 2000	> 2000	> 2000	> 2000	IC50 [9]: > 2000 nM; IC50 [13]: > 2000 nM
CCc1nc(N)nc(N)c1-c1ccc(Cl)cc1 [PYRIMETHAMINE]	> 20000	> 20000	> 20000	2860	> 20000	2480	> 20000	> 20000	> 20000	10200	2320	6540	17900	> 20000	12700	> 20000	3770	> 20000	> 20000	–	IC50 [9]: > 20000 nM; IC50 [13]: 5780 nM
O=C(/C=C/c1ccccc1)NC(NC(=S)Nc1cccc2cccnc12)C(Cl)(Cl)Cl (centres undefined) [SALUBRINAL]	> 16000	> 16000	> 16000	> 16000	> 16000	> 16000	13800	> 16000	> 16000	15300	> 16000	> 16000	11200	> 16000	11500	> 16000	> 16000	> 16000	> 16000	> 16000	IC50 [9]: > 16000 nM; IC50 [13]: > 16000 nM
CN1CCN(CCOc2cc(OC3CCOCC3)c3c(Nc4c(Cl)ccc5c4OCO5)ncnc3c2)CC1 [SARACATINIB]	> 2000	> 2000	> 2000	> 2000	> 2000	61.4	> 2000	> 2000	> 2000	> 2000	> 2000	> 2000	> 2000	1280	652	> 2000	> 2000	1370	> 2000	> 2000	–
CO[C@H]1C[C@@H]2CC[C@@H](C)[C@@](O)(O2)C(=O)C(=O)N2CCCC[C@H]2C(=O)O[C@H]([C@H](C)C[C@@H]2CC[C@@H](O)[C@H](OC)C2)CC(=O)[C@H](C)/C=C(\C)[C@@H](O)[C@@H](OC)C(=O)[C@H](C)C[C@H](C)/C=C/C=C/C=C/1C [SIROLIMUS]	> 100	> 100	> 100	> 100	> 100	> 100	32.6	> 100	> 100	16.1	> 100	> 100	0.985	96.3	84	> 100	> 100	> 100	> 100	> 100	–
CNC(=O)c1cc(Oc2ccc(NC(=O)Nc3ccc(Cl)c(C(F)(F)F)c3)cc2)ccn1 [SORAFENIB]	> 4000	> 4000	> 4000	> 4000	> 4000	> 4000	> 4000	> 4000	> 4000	> 4000	1020	> 4000	> 4000	> 4000	> 4000	> 4000	> 4000	> 4000	> 4000	> 4000	IC50 [9]: > 4000 nM; IC50 [13]: 888 nM
CCC(=O)N1CCN(c2ccc(-n3c(=O)ccc4cnc5ccc(-c6cnc7ccccc7c6)cc5c43)cc2C(F)(F)F)CC1 [TORIN1]	> 1200	294	> 1200	14.1	> 1200	65.5	26.5	222	117	15.7	76.4	84.4	26.8	13.6	22	1110	41.9	322	113	> 1200	–
Cc1cc(Nc2cc(N3CCN(C)CC3)nc(Sc3ccc(NC(=O)C4CC4)cc3)n2)n[nH]1 [TOZASERTIB]	> 2000	> 2000	> 2000	220	> 2000	588	1870	> 2000	> 2000	521	264	> 2000	850	900	126	> 2000	> 2000	> 2000	> 2000	> 2000	–
